Data published in US4442090A, “Absorption-promoting compounds, compositions thereof with pharmaceuticals and/or bases for rectal administration and method of use” (Kyoto Yakuhin Kogyo Kabushiki Kaisha, priority 1980, dated 1984).

How the values were obtained:
[1] = Urinary excretions of AB-PC after administration of AB-PC rectal suppository (human); format: in vivo; settings: AB-PC 125 mg (potency); for Urinary excretions of AB-PC (%) (0-6 hr.): added compound 10%, Witepsol H-15, % of dose; for Urinary excretions (%) 0-2 (hr.) / Urinary excretions (%) 2-4 (hr.) / Urinary excretions (%) 4-6 (hr.) / Urinary excretions (%) Total (0-6 hr.): Compound (I) 10%, Witepsol H-15, Table 3
Description: The thus-obtained suppositories were administered to healthy adult male humans from the anus, and the urinary excretions of AB-PC were determined.

[2] = Urinary excretions of β-lactam antibiotics after rectal suppository (rabbit); format: in vivo; settings: Compound (I) 5%, Witepsol H-15
Description: The absorption into the circulation through the rectum of the rectal suppositories thus prepared was determined by measuring urinary excretion of the pharmacologically-active substance.
Thus, Sarcina lutea and Bacillus subtilis were used as assay organisms for penicillins and cephalosporins, respectively, and the assays were performed by the paper disk method (cultivation at 37° C. for from 15 to 20 hours).

With `Nc1ccc(C(=O)O)cc1` [P--Aminobenzoic acid Na, P--Aminobenzoic acid, reference compound] the “Urinary excretions of AB-PC (%) (0-6 hr.)” value [1] was 4.9%.

With `CCCCCCOc1ccc(C(=O)O)cc1` [Compound 6-Na, p-Hexyloxybenzoic acid] the “Urinary excretions (%) 0-2 hr.” value ([2]; SCE-1365 125 mg (potency)) was 45.0%, the “Urinary excretions (%) 2-4 hr.” value ([2]; SCE-1365 125 mg (potency)) was 18.2% and the “Urinary excretions (%) 4-6 hr.” value ([2]; SCE-1365 125 mg (potency)) was 1.8%. For the same compound, the “Urinary excretions (%) Total (0-6 hr.)” value ([2]; SCE-1365 125 mg (potency)) was 65.0% and the “Urinary excretions of AB-PC (%) (0-6 hr.)” value [1] was 21.2%.

For `CCCCCCCC(=O)Nc1ccc(C(=O)O)cc1` [Compound 17-Na, N--(n-Caprylyl)-4-aminobenzoic acid], the “Urinary excretions (%) 0-2 hr.” value ([2]; Cefmetazole 125 mg (potency)) was 45.0%, the “Urinary excretions (%) 2-4 hr.” value ([2]; Cefmetazole 125 mg (potency)) was 21.1% and the “Urinary excretions (%) 4-6 hr.” value ([2]; Cefmetazole 125 mg (potency)) was 3.0%. The “Urinary excretions (%) Total (0-6 hr.)” value ([2]; Cefmetazole 125 mg (potency)) was 64.6%.

With `CCCCCCCCCC(=O)N[C@H](C(=O)O)C(C)C` [Compound 24-Na, N--Caprinoyl-L-valine] the “Urinary excretions (%) 0-2 hr.” value ([2]; Cefotaxime 125 mg (potency)) was 31.5%, the “Urinary excretions (%) 2-4 hr.” value ([2]; Cefotaxime 125 mg (potency)) was 10.0% and the “Urinary excretions (%) 4-6 hr.” value ([2]; Cefotaxime 125 mg (potency)) was 0.8%. The “Urinary excretions (%) Total (0-6 hr.)” value ([2]; Cefotaxime 125 mg (potency)) was 42.3%, the “Urinary excretions (%) 0-2 hr.” value ([2]; FK-749 125 mg (potency)) was 45.0% and the “Urinary excretions (%) 2-4 hr.” value ([2]; FK-749 125 mg (potency)) was 5.6%. For the same compound, the “Urinary excretions (%) 4-6 hr.” value ([2]; FK-749 125 mg (potency)) was 2.5%, the “Urinary excretions (%) Total (0-6 hr.)” value ([2]; FK-749 125 mg (potency)) was 53.1% and the “Urinary excretions (%) 0-2 (hr.)” value [1] was 18.0%. The “Urinary excretions (%) 2-4 (hr.)” value [1] was 5.1%, the “Urinary excretions (%) 4-6 (hr.)” value [1] was 1.0% and the “Urinary excretions (%) Total (0-6 hr.)” value [1] was 23.1%.

With `CCCCCCCCCC(=O)NCCC(=O)O` [Compound 16-Na, N--(n-Caprinoyl)-β-alanine] the “Urinary excretions (%) 0-2 hr.” value ([2]; Cefmetazole 125 mg (potency)) was 43.1%, the “Urinary excretions (%) 2-4 hr.” value ([2]; Cefmetazole 125 mg (potency)) was 19.9% and the “Urinary excretions (%) 4-6 hr.” value ([2]; Cefmetazole 125 mg (potency)) was 2.9%. For the same compound, the “Urinary excretions (%) Total (0-6 hr.)” value ([2]; Cefmetazole 125 mg (potency)) was 69.1%.

In the case of `CCCCCCCCCCNC(=O)CCC(=O)O` [Compound 12-Na, N--(n-Decyl)succinamic acid], the “Urinary excretions (%) 0-2 hr.” value ([2]; FK-749 125 mg (potency)) is reported as 40.1%, the “Urinary excretions (%) 2-4 hr.” value ([2]; FK-749 125 mg (potency)) is reported as 18.0% and the “Urinary excretions (%) 4-6 hr.” value ([2]; FK-749 125 mg (potency)) is reported as 2.0%. The “Urinary excretions (%) Total (0-6 hr.)” value ([2]; FK-749 125 mg (potency)) was 60.1%.

In the case of `O=C(O)CCCCCCCCCCCCC(=O)O` [Compound 7-Na, 1,12-Dodecamethylene dicarboxylic acid], the “Urinary excretions (%) 0-2 hr.” value ([2]; 6059-S 125 mg (potency)) is reported as 42.2%, the “Urinary excretions (%) 2-4 hr.” value ([2]; 6059-S 125 mg (potency)) is reported as 8.8% and the “Urinary excretions (%) 4-6 hr.” value ([2]; 6059-S 125 mg (potency)) is reported as 1.0%. For the same compound, the “Urinary excretions (%) Total (0-6 hr.)” value ([2]; 6059-S 125 mg (potency)) was 52.0% and the “Urinary excretions of AB-PC (%) (0-6 hr.)” value [1] was 22.6%.

With `CC1CCC(C(C)C)C(OCC(=O)O)C1` [Compound 11-Na, L-Menthoxyacetic acid] the “Urinary excretions of AB-PC (%) (0-6 hr.)” value [1] was 20.0%.

With `CCCCCC(=O)N[C@@H](Cc1ccccc1)C(=O)O` [Compound 21-Na, N--Caproyl-L-phenylalanine] the “Urinary excretions (%) 0-2 (hr.)” value [1] was 16.8%, the “Urinary excretions (%) 2-4 (hr.)” value [1] was 2.0% and the “Urinary excretions (%) 4-6 (hr.)” value [1] was 1.1%. For the same compound, the “Urinary excretions (%) Total (0-6 hr.)” value [1] was 19.9%.

In the case of `CCCCCCCCCCCC(=O)N[C@H](C(=O)O)C(C)C` [Compound 25-Na, N--Lauroyl-L-valine], the “Urinary excretions (%) 0-2 hr.” value ([2]; Cefmetazole 125 mg (potency)) is reported as 45.0%, the “Urinary excretions (%) 2-4 hr.” value ([2]; Cefmetazole 125 mg (potency)) is reported as 10.0% and the “Urinary excretions (%) 4-6 hr.” value ([2]; Cefmetazole 125 mg (potency)) is reported as 2.0%. The “Urinary excretions (%) Total (0-6 hr.)” value ([2]; Cefmetazole 125 mg (potency)) was 57.0%.

In the case of `CC(=O)NCC(=O)[O-].[Na+]` [N--Acetylglycine Na, N--Acetylglycine, reference compound], the “Urinary excretions of AB-PC (%) (0-6 hr.)” value [1] is reported as 2.5%.

With `CCCCN(CCCC)C(=O)CCC(=O)O` [Compound 15-Na, N,N--Di-(n-butyl)succinamic acid] the “Urinary excretions (%) 0-2 hr.” value ([2]; Cefmetazole 125 mg (potency)) was 44.0%, the “Urinary excretions (%) 2-4 hr.” value ([2]; Cefmetazole 125 mg (potency)) was 20.0% and the “Urinary excretions (%) 4-6 hr.” value ([2]; Cefmetazole 125 mg (potency)) was 1.0%. The “Urinary excretions (%) Total (0-6 hr.)” value ([2]; Cefmetazole 125 mg (potency)) was 65.9%.

For `O=C(N[C@@H](Cc1ccccc1)C(=O)O)c1ccccc1O` [Compound 19-Na, N--(2-Hydroxybenzoyl)phenylalanine], the “Urinary excretions (%) 0-2 hr.” value ([2]; 6059-S 125 mg (potency)) was 38.0%, the “Urinary excretions (%) 2-4 hr.” value ([2]; 6059-S 125 mg (potency)) was 20.0% and the “Urinary excretions (%) 4-6 hr.” value ([2]; 6059-S 125 mg (potency)) was 3.1%. The “Urinary excretions (%) Total (0-6 hr.)” value ([2]; 6059-S 125 mg (potency)) was 61.1%.

With `CC(=O)O` [Acetic acid Na, Acetic acid, reference compound] the “Urinary excretions of AB-PC (%) (0-6 hr.)” value [1] was 3.6%.

For `CCCCOc1ccc(C(=O)N[C@@H](Cc2ccccc2)C(=O)O)cc1` [Compound 20-Na, N--(4-Butoxybenzoyl)phenylalanine], the “Urinary excretions (%) 0-2 hr.” value ([2]; 6059-S 125 mg (potency)) was 46.0%, the “Urinary excretions (%) 2-4 hr.” value ([2]; 6059-S 125 mg (potency)) was 15.2% and the “Urinary excretions (%) 4-6 hr.” value ([2]; 6059-S 125 mg (potency)) was 4.1%. For the same compound, the “Urinary excretions (%) Total (0-6 hr.)” value ([2]; 6059-S 125 mg (potency)) was 65.3%.

In the case of `CCCCCCCCCCCCCCCC(=O)N[C@@H](CC(=O)O)C(=O)O` [Compound 27-Na, N--Palmitoyl-L-aspartic acid], the “Urinary excretions (%) 0-2 hr.” value ([2]; Cefotiam 125 mg (potency)) is reported as 35.2%, the “Urinary excretions (%) 2-4 hr.” value ([2]; Cefotiam 125 mg (potency)) is reported as 6.2% and the “Urinary excretions (%) 4-6 hr.” value ([2]; Cefotiam 125 mg (potency)) is reported as 0.5%. For the same compound, the “Urinary excretions (%) Total (0-6 hr.)” value ([2]; Cefotiam 125 mg (potency)) was 41.9%, the “Urinary excretions (%) 0-2 (hr.)” value [1] was 22.0% and the “Urinary excretions (%) 2-4 (hr.)” value [1] was 4.1%. For the same compound, the “Urinary excretions (%) 4-6 (hr.)” value [1] was 0.7% and the “Urinary excretions (%) Total (0-6 hr.)” value [1] was 26.8%.
